Experiment [1] deals with MRSA. The experiment in a line: MICs of antibiotics against MRSA in the presence of flufenamic acid (synergy). Format: cell-based, Staphylococcus aureus. As to conditions: for susceptibility of MRSA to the antibiotic in the presence of FLF: with FLF (FIG. 4B, 4C).
The subject of experiment [2] is MRSA. The experiment can be described thus: Screening of Prestwick chemical library for inhibitory activity against bacteria. It counts as cell-based, S. aureus. As to conditions: 100 μg/mL, 24 hours. As to the method:
To screen compounds having inhibitory activity against bacteria, MRSA was 200-fold diluted in 0.2 mL of LB in 96-well microplates and cultured overnight at 37° C. with agitation at 180 RPM. Prestwick chemical library was added at a final concentration of 100 μg/mL per well. The microplates were incubated at 37° C. for 24 hours with agitation at 180 RPM and the optical density at 600 nm was measured.

The test system of experiment [3] is Methicillin-resistant Staphylococcus aureus (MRSA). The experiment can be described thus: Growth inhibition, cell density OD 600 nm. As to conditions: 8 h, read-out: growth inhibited. It counts as cell-based. As to the method:
(§1) FLF was assayed for inhibitory activity against Methicillin-resistant staphylococcus aureus (MRSA). In this regard, Methicillin-resistant Staphylococcus aureus (MRSA) was cultured overnight and 200-fold diluted in 2 mL of LB containing various concentrations of FLF. After additional incubation at 37° C. for 8 hours, cell densities were measured by recoding OD at 600 nm.

For experiment [4], the target named is T1, SA1606 (Staphylococcus aureus, UniProt Q2FXE2).
T1 sequence (Q2FXE2 1-277 N135K/V136A/R184H/A227G/T230I/K274T): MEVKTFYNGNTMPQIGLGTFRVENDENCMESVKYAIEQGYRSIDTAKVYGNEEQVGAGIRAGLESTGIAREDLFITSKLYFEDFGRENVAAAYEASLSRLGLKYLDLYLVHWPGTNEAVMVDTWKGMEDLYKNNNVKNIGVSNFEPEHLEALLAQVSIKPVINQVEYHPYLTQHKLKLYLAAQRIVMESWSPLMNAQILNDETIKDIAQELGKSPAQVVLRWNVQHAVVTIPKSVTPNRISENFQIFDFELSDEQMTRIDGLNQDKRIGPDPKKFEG
The experiment can be described thus: Aldo-keto reductase enzymatic assay (NADPH absorbance 340 nm, methylglyoxal). Format: biochemical, S. aureus. The conditions noted are these: 0.5 mM NADPH, 5 mM methylglyoxal, 10 μM enzyme, pH 7.0. How it is done: (§2) Aldo-keto reductase (AKR) activity was measured to examine whether FLF inhibits the enzymatic activities of SA1606 and SA2001 on the basis of the data of Example 8 showing the binding of FLF to SA16006 and SA2001. On the whole, bacterial AKR catalyzes the reduction of various chemicals with NADPH. […] As is evidenced in Example 6, SA1606 and SA2001 have structural and functional similarity with the human aldo-keto reductase AKR1C3 and the bacterial aldo-keto reductase DkgA. Thus, the enzymatic activity of […] was measured to analyze the inhibitory activity of FLF. The reaction for evaluating enzymatic activity was comprised of 0.5 mM NADPH, 5 mM methylglyoxal and 10 μM aldo-keto reductase in 50 mM sodium phosphate buffer, pH 7.0. Absorbance at 340 nm of the reaction was measured for 10 min to calculate the consumption of NADPH.

Experiment [5] addresses T2, SA2001 (Staphylococcus aureus, UniProt Q2FW57).
T2 sequence (Q2FW57 1-279 N2D): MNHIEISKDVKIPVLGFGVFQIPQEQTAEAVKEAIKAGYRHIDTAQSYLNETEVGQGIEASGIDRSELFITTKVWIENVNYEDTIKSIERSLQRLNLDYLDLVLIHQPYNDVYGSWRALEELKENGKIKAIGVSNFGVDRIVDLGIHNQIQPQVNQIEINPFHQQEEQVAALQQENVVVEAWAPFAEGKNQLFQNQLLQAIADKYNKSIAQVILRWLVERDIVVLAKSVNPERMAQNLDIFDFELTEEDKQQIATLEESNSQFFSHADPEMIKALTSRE
The experiment is described as above. Format: biochemical, S. aureus. The conditions noted are these: 0.5 mM NADPH, 5 mM methylglyoxal, 10 μM enzyme, pH 7.0. How it is done:
as §2

Another experiment deals with B. subtilis. The experiment in a line: MIC by broth dilution method. Format: cell-based. The conditions noted are these: Bacillus subtilis, 24 hours of incubation. How it is done:
(§3) FLF was examined for inhibitory activity against various bacteria. Staphylococcus epidermidis, Bacillus subtilis, Listeria monocytogenes and Enterococcus faecium were cultured overnight and 200-fold diluted in 2 mL of LB containing various concentrations of FLF. Cell densities were determined by measuring the OD at 600 nm after incubation at 37° C. for 8 hours. The MICs of FLF were determined using a broth dilution method. In brief, bacteria were inoculated into LB containing serially diluted concentrations of FLF in 96-well microplates. After 24 hours of incubation, bacterial growth was examined. Antibacterial activity of FLF was tested over various Gram-positive bacteria including Staphylococcus epidermidis, Bacillus subtilis, Listeria monocytogenes, and Enterococcus faecium.

The test system of another experiment is S. epidermidis. The experiment can be described thus: MIC by broth dilution method. It counts as cell-based. The conditions noted are these: Staphylococcus epidermidis, 24 hours of incubation. As to the method: as §3
A general note: Dilution methods test growth across graded concentrations, often in twofold steps.

The next experiment has as its system L. monocytogenes. The experiment can be described thus: MIC by broth dilution method. Format: cell-based. As to conditions: Listeria monocytogenes, 24 hours of incubation. As to the method: as §3
The test system of another experiment is E. faecium. The experiment in a line: MIC by broth dilution method. Format: cell-based. The conditions noted are these: Enterococcus faecium, 24 hours of incubation. As to the method: as §3
The target in experiment [6] is T3, SA2001 (Staphylococcus aureus, UniProt Q2FW57, N2D).
T3 sequence (Q2FW57 1-279 N2D): T2 sequence (Q2FW57 1-279 N2D)
The experiment in a line: Binding affinity by isothermal titration calorimetry. On the set-up: species or system S. aureus. The conditions noted are these: ITC, 10 mM HEPES pH 7.0, 3% DMSO; read-out: dissociation constant (Kd). From the text:
(§4) Genes of SA1606 (GenBank number: BAB42874) and […] (GenBank number: BAB43292) were amplified using PCR with the genomic DNA of S. aureus N315 serving as a template. PCR primers were 5′-[…] […]-3′ (SEQ ID NO: 4) and 5′-[…]-3′ (SEQ ID NO: 5) for SA1606, and 5′-[…]-3′ (SEQ ID NO: 6) and 5′-5 […]-3′ (SEQ ID NO: 7) for SA2001. Ncol and Xhol restriction sites were incorporated into the forward primer sequences and the reverse primer sequences, respectively. The PCR products were digested with Ncol and Xhol and inserted into Ncol/Xhol-digested pET28a vectors (Novagen). The DNAs 10 thus ligated were transformed into E. coli BL21 DE3 (Invitrogen). Coding sequences of the cloned genes SA1606 and SA2001 were confirmed by nucleotide sequencing. Recombinant SA1606 and SA2001 with histidine tag at the C-terminus were expressed in E. coli and then loaded into Hi-Trap chelating 15 columns (GE Healthcare) equilibrated with buffer A (20 mM HEPES, pH 7.5, 50 mM imadazole and 500 mM NaCl). […]
(§5) Binding affinity for SA1606 and SA2001 of FLF was measured using VP-ITC Micro calorimeter (MicroCal Inc). […] Thereafter, the affinity of FLF for the proteins were calculated on the basis of the heat generated upon the binding of FLF to the proteins. The data was analyzed with ORIGIN software (MicroCal Inc).
Background: In ITC the heat of successive injections is recorded.

The target of experiment [7] is T1, SA1606. The experiment is described as above. The conditions noted are these: ITC, 10 mM HEPES pH 7.0, 3% DMSO; read-out: dissociation constant (Kd). Also on record: species or system S. aureus.
Excerpt: as §4, §5

In the next experiment the test system is S. aureus MSSA. The experiment in a line: MIC by broth dilution method. Format: cell-based. As to conditions: Staphylococcus aureus, 24 hours of incubation.
The next experiment has as its system S. aureus MRSA. The experiment can be described thus: MIC by broth dilution method. It counts as cell-based, Staphylococcus aureus. How it is done:
as §1, §3

Experiment [8] concerns Staphylococcus epidermidis. The experiment can be described thus: Growth inhibition, cell density OD 600 nm. The conditions noted are these: 20~40 μg/mL FLF, 8 hours. It counts as cell-based. As to the method:
as §3

A further experiment concerns Listeria monocytogenes. The experiment can be described thus: Growth inhibition, cell density OD 600 nm. Format: cell-based. The conditions noted are these: 20~40 μg/mL FLF, 8 hours. How it is done:
as §3

The next experiment concerns Enterococcus faecium. The experiment in a line: Growth inhibition, cell density OD 600 nm. It counts as cell-based. The conditions noted are these: 20~40 μg/mL FLF, 8 hours. How it is done: as §3
The next experiment concerns Bacillus subtilis. The experiment in a line: Growth inhibition, cell density OD 600 nm. The conditions noted are these: 20~40 μg/mL FLF, 8 hours. It counts as cell-based. How it is done: as §3

SMILES strings stand for the structures. In brackets after ≈: the same amount, converted by molar mass.

The record followed here is patent US9238016B2, “Antibiotic composition comprising flufenamic acid as an active ingredient” (SUNGKYUNKWAN UNIVERSITY FOUNDATION FOR CORPORATE …, priority 2010, dated 2016).

For `CC(=O)OCC1=C(C(=O)O)N2C(=O)[C@@H](NC(=O)Cc3cccs3)[C@H]2SC1` [Cephalothin], the “MICs of antibiotic against MRSA” value was found to be 128 µg/mL in the experiment on MRSA [1] (10 μg/ml FLF); 64 µg/mL in the experiment with MRSA [1] (20 μg/ml FLF); 16 µg/mL in the experiment with MRSA [1] (30 μg/ml FLF); 4 µg/mL in the experiment with MRSA [1] (40 μg/ml FLF); 128 µg/mL in the experiment on MRSA [1] (No FLF). In the experiment with MRSA [1], the “susceptibility of MRSA to the antibiotic in the presence of FLF” value is given as “far more susceptible”.
Turning to `O=C(O)c1ccccc1Nc1cccc(C(F)(F)F)c1` [FLF, flufenamic acid], the “inhibitory activity against bacteria (OD 600 nm) in library screen” value in the experiment with MRSA [2] is recorded as “most inhibitory”. The inhibition at 40 µg/mL in [3] came to 90%. Also, the “enzymatic activity (reduction of methylglyoxal with NADPH) in the presence of FLF” value on SA1606 [4] and at SA2001 [5] was “inhibited” each time. Besides, the MIC with B. subtilis came out at 32 µg/mL (≈ 114 µM); against S. epidermidis it was 64 µg/mL (≈ 228 µM); with L. monocytogenes, 32 µg/mL (≈ 114 µM); with E. faecium it was 32 µg/mL (≈ 114 µM); with S. aureus MSSA it was 64 µg/mL (≈ 228 µM); with S. aureus MRSA (Staphylococcus aureus, MRSA, 24 h, read-out: MICs), 64 µg/mL (≈ 228 µM). The Kd (as a rule, the constant that tells how readily two partners part at equilibrium) was determined as 38.1 µM on SA2001 [6] and 14.5 µM on SA1606 [7]. Also, the MICs against S. aureus MRSA (S. aureus MRSA, 24 hours of incubation) came out at 64 µg/mL. Moreover, the growth inhibited (in experiment [8]; with Listeria monocytogenes; in the experiment with Enterococcus faecium; in the experiment with Bacillus subtilis) was 90% in each case. In the experiment on MRSA [1] (FLF in combination with Norfloxacin, Oxacillin or Cephalothin, MRSA), the “synergistic effect with classical antibiotics” value is “synergistically inhibited”.
Turning to `CCn1cc(C(=O)O)c(=O)c2cc(F)c(N3CCNCC3)cc21` [Norfloxacin], the “MICs of antibiotic against MRSA” value with MRSA [1] (10 μg/ml FLF) is 64 µg/mL; in the experiment on MRSA [1] (20 μg/ml FLF) it was 32 µg/mL; in the experiment with MRSA [1] (30 μg/ml FLF), 16 µg/mL; in the experiment on MRSA [1] (40 μg/ml FLF) it was 8 µg/mL; with MRSA [1] (No FLF), 128 µg/mL.
On to `Cc1onc(-c2ccccc2)c1C(=O)N[C@@H]1C(=O)N2[C@@H]1SC(C)(C)[C@@H]2C(=O)O` [Oxacillin], for which the “MICs of antibiotic against MRSA” value was 256 µg/mL with MRSA [1] (10 μg/ml FLF), 32 µg/mL in the experiment on MRSA [1] (30 μg/ml FLF), 8 µg/mL with MRSA [1] (40 μg/ml FLF) and greater than 256 µg/mL in the experiment with MRSA [1] (No FLF). For the same molecule, in the experiment on MRSA [1], the “susceptibility of MRSA to the antibiotic in the presence of FLF” value was “far more susceptible”.
